Data published in patent US20100317001A1, “METHOD OF USING TUMOUR RNA INTEGRITY TO MEASURE RESPONSE TO CHEMOTHERAPY IN CANCER PATIENTS” (LAURENTIAN UNIVERSITY, priority 2007, published 2010).

What was measured:
breast cancer = conditions: after anthracycline-based chemotherapy; cited from earlier work
[1] = dose level 6, epirubicin plus docetaxel every 3 weeks (Schedule A) with pegfilgrastim support
Description: Patients were from a national clinical trial hosted by the National Cancer Institute of Canada Clinical Trials Group (referred to as group “MA.22”) and were treated with increasing dose levels of both epirubicin and docetaxel, with pegfilgrastim support to reduce neutropenia associated with this therapy.

Compound: CC(=O)O[C@H]1C(=O)[C@@]2(C)[C@H]([C@H](OC(=O)c3ccccc3)[C@]3(O)C[C@H](OC(=O)[C@H](O)[C@@H](NC(=O)c4ccccc4)c4ccccc4)C(C)=C1C3(C)C)[C@]1(OC(C)=O)CO[C@@H]1C[C@@H]2O [paclitaxel]
- breast cancer patients that respond (breast cancer): 33%

Compound: CC(=O)O[C@@]12CO[C@@H]1C[C@H](O)[C@@]1(C)C(=O)[C@H](O)C3=C(C)[C@@H](OC(=O)[C@H](O)[C@@H](NC(=O)OC(C)(C)C)c4ccccc4)C[C@@](O)([C@@H](OC(=O)c4ccccc4)[C@H]21)C3(C)C [docetaxel]
- breast cancer patients that respond (breast cancer): 35.4%
- maximum tolerated dose [1]: 75 mg/m^2

Compound: COc1cccc2c1C(=O)c1c(O)c3c(c(O)c1C2=O)C[C@@](O)(C(=O)CO)C[C@@H]3O[C@H]1C[C@H](N)[C@@H](O)[C@H](C)O1 [epirubicin]
- maximum tolerated dose [1]: 105 mg/m^2
